Laboratory results published in patent US8124780B2, “Benzimidazole compound” (priority 2005, dated 2012).
Counter-ions that a name gives are not always drawn. Like-named read-outs stand apart in the source and are kept apart here.

Tested on: gastric acid secretion
Assay: animal or person
Type: in vivo, dog
Conditions: Canis lupus familiaris
[1] = iv, 24 h, read-out: Persistency of inhibitory effect against gastric acid secretion (%)
[2] = iv, read-out: Inhibitory effect against gastric acid secretion (%)

SMILES	inhibition in vivo at 0.8 mg/kg [1] [%]	inhibition in vivo at 0.8 mg/kg [2] [%]	inhibition in vivo at 1.6 mg/kg [1] [%]	inhibition in vivo at 1.6 mg/kg [2] [%]	further results
[O-][S+](Cc1cc(OCC2COC3(CCOCC3)OC2)ccn1)c1nc2ccccc2[nH]1 (stereo not shown) [Example 60, 2-(((4-(1,5,9-trioxaspiro[5.5]undec-3-ylmethoxy)pyridin-2-yl)methyl)sulfinyl)-1H-benzimidazole sodium salt]	74	89	–	–	–
Cc1c(OCC2COc3ccccc3O2)ccnc1C[S+]([O-])c1nc2ccccc2[nH]1 (stereo not shown) [Example 61, 2-(((4-(2,3-dihydro-1,4-benzodioxin-2-ylmethoxy)-3-methylpyridin-2-yl)methyl)sulfinyl)-1H-benzimidazole sodium salt]	–	–	90	100	–
Cc1c(OCCC2COC(C)(C)O2)ccnc1C[S+]([O-])c1nc2ccccc2[nH]1 (stereo not shown) [Example 64, 2-(((4-(2-(2,2-dimethyl-1,3-dioxolan-4-yl)ethoxy)-3-methylpyridin-2-yl)methyl)sulfinyl)-1H-benzimidazole sodium salt]	78	100	–	–	–
CCC1(CC)OCC(COc2ccnc(C[S+]([O-])c3nc4ccccc4[nH]3)c2C)O1 (stereo not shown) [Example 65, 2-(((4-((2,2-diethyl-1,3-dioxolan-4-yl)methoxy)-3-methylpyridin-2-yl)methyl)sulfinyl)-1H-benzimidazole sodium salt]	–	–	91	100	–
Cc1c(OCC2OCCO2)ccnc1C[S+]([O-])c1nc2ccccc2[nH]1 (stereo not shown) [Example 66, 2-(((4-(1,3-dioxolan-2-ylmethoxy)-3-methylpyridin-2-yl)methyl)sulfinyl)-1H-benzimidazole sodium salt]	–	–	79	100	–
Cc1c(OCC2(C)OCCO2)ccnc1C[S+]([O-])c1nc2ccccc2[nH]1 (stereo not shown) [Example 67, 2-(((3-methyl-4-((2-methyl-1,3-dioxolan-2-yl)methoxy)pyridin-2-yl)methyl)sulfinyl)-1H-benzimidazole sodium salt]	–	–	83	100	–
Cc1c(OCCC2(C)OCCO2)ccnc1C[S+]([O-])c1nc2ccccc2[nH]1 (stereo not shown) [Example 69, 2-(((3-methyl-4-(2-(2-methyl-1,3-dioxolan-2-yl)ethoxy)pyridin-2-yl)methyl)sulfinyl)-1H-benzimidazole sodium salt]	–	–	78	100	–
Cc1c(OCC2(C)OCCO2)ccnc1C[S+]([O-])c1nc2ccccc2[nH]1 (stereo not drawn) [Example 70, Sodium salt of an optical isomer of 2-(((3-methyl-4-((2-methyl-1,3-dioxolan-2-yl)methoxy)pyridin-2-yl)methyl)sulfinyl)-1H-benzimidazole]	–	–	–	–	inhibition in vivo at 1.6 mg/kg (i.d., 24 h, dose 1.6 mg/kg i.d., second day, 24 hours after administration, histamine i.v., read-out: Persistency of inhibitory effect against gastric acid secretion (%)): 77%; inhibition in vivo at 1.6 mg/kg (i.d., dose 1.6 mg/kg i.d., first day, 1 h 40 min to 2 h after administration, histamine i.v., read-out: Inhibitory effect against gastric acid secretion (%)): 100%
Cc1c(OCCC2(C)OCC3(CO2)OCCO3)ccnc1C[S+]([O-])c1nc2ccccc2[nH]1 (stereo not shown) [Example 73, 2-(((3-methyl-4-(2-(8-methyl-1,4,7,9-tetraoxaspiro[4.5]dec-8-yl)ethoxy)pyridin-2-yl)methyl)sulfinyl)-1H-benzimidazole sodium salt]	94	100	–	–	–
CC1(CCOc2ccnc(C[S+]([O-])c3nc4ccccc4[nH]3)c2)OCC2(CO1)OCCO2 (stereo not shown) [Example 75, 2-(((4-(2-(8-methyl-1,4,7,9-tetraoxaspiro[4.5]dec-8-yl)ethoxy)pyridin-2-yl)methyl)sulfinyl)-1H-benzimidazole sodium salt]	75	85	–	–	–
Cc1c(OC2CCC3(CC2)OCC(C)(C)CO3)ccnc1C[S+]([O-])c1nc2ccccc2[nH]1 (stereo not shown) [Example 81, 2-(((4-((3,3-dimethyl-1,5-dioxaspiro[5.5]undec-9-yl)oxy)-3-methylpyridin-2-yl)methyl)sulfinyl)-1H-benzimidazole sodium salt]	70	96	–	–	–
